The compounds below were run against T1, human TPO receptor (hTPOR) (Homo sapiens, UniProt P40238) (assay: Thrombopoietic activity: proliferation of TPO dependent BaF/hTPOR cells (WST-1, absorbance at 450 nm)). Details: 20 h + 4 h WST-1, ED50 = half concentration of the concentration showing the maximum thrombopoietic activity, Table 1.
T1 construct: expressed in transfected cells; host or cells: BaF-B03 (murine IL-3 dependent cell line)
T1 sequence (P40238 26-635): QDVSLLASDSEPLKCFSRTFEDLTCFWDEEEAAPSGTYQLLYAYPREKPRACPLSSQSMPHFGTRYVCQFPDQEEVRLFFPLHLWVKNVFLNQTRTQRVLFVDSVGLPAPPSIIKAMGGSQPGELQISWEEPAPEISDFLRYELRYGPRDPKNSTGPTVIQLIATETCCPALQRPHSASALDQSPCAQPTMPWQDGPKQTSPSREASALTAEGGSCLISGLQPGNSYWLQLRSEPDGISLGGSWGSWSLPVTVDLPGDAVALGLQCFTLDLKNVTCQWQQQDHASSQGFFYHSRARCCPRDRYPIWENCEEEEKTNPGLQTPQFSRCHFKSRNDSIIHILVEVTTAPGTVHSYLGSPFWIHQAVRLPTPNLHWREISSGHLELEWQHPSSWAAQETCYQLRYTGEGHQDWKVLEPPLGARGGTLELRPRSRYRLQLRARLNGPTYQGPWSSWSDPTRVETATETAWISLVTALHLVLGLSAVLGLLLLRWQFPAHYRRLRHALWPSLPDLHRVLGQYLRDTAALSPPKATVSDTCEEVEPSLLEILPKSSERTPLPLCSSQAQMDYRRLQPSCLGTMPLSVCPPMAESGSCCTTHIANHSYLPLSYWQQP
Assay type: cell-based
Description: The TPO dependent BaF/hTPOR cell line which was established by introducing human TPO receptor (hTPOR) into BaF-B03 cells according to Collins et al (J. Cell. Physiol., 137:293-298 (1988)) was used to test the thrombopoietic activity of the present compound. The DNA sequences and encoded peptide sequences for human hTPOR have been described by Vigon et al (Proc. Natl. Acad. Sci. USA, 89:5640-5644 (1992)). TPO dose not have any ability to support proliferation of interlukin-3 dependent parental cell line BaF-B03. BAF/hTPOR cells were maintained in RPMI medium and WEHI-3B conditioned medium as a source of murine interleukin-3 (IL-3). These cells were washed and resuspended in RPMI medium without a source of murine IL-3 and seeded into each well of 96-well microtiter plates at a density of 5×10^4 cells per well in the absence or presence of various concentration of hTPO or the present compound. After incubation at 37° C. for 20 hours in the 5% CO2 incubator, 10% WST-1 reagent (Takara Biomedicals, Japan) was added to each wells and the cells were further incubated for 4 hours. The absorbance at 450 nm was measured. Tables 1 and 2 exemplify the ED50 for tested compounds of the present invention, wherein the ED50 is the half concentration of the concentration showing the maximum thrombopoietic activity.

In order of rising EC50:
1. CCCCCOC(CC)c1cccc(-c2csc(NC(=O)c3cc(Cl)c(C=C(C)C(=O)O)c(Cl)c3)n2)c1F (stereo not drawn) [Compound B67, 3-[2,6-dichloro-4-(4-{3-[1-n-pentyloxypropyl]-2-fluorophenyl}thiazol-2-ylcarbamoyl)phenyl]-2-methylacrylic acid]  0.48 nM
2. COC(CCC(C)C)c1cccc(-c2csc(NC(=O)c3cc(Cl)c(C=C(C)C(=O)O)c(Cl)c3)n2)c1F (stereo not drawn) [Compound B60, 3-(2,6-dichloro-4-{4-[2-fluoro-3-(1-methyloxy-4-methylpentyl)phenyl]thiazol-2-ylcarbamoyl}phenyl)-2-methylacrylic acid]  0.75 nM
3. CCOC(CC(C)(C)C)c1cccc(-c2csc(NC(=O)c3cc(Cl)c(C=C(C)C(=O)O)c(Cl)c3)n2)c1F (stereo not drawn) [Compound B62, 3-(2,6-dichloro-4-{4-[2-fluoro-3-(1-ethyloxy-3,3-dimethylbutyl)phenyl]thiazol-2-ylcarbamoyl}phenyl)-2-methylacrylic acid]  0.76 nM
4. CCCCOC(CCC)c1cccc(-c2csc(NC(=O)c3cc(F)c(C=C(C)C(=O)O)c(F)c3)n2)c1F (stereo not drawn) [Compound B35, 3-(4-{4-[3-(1-n-butyloxybutyl)-2-fluorophenyl]thiazol-2-ylcarbamoyl}-2,6-difluorophenyl)-2-methylacrylic acid]  0.77 nM
5. CCCOC(C)c1cccc(-c2csc(NC(=O)c3cc(Cl)c(C=C(C)C(=O)O)c(Cl)c3)n2)c1F (stereo not drawn) [Compound B97, 3-(2,6-dichloro-4-{4-[2-fluoro-3-(1-n-propyloxyethyl)phenyl]thiazol-2-ylcarbamoyl)phenyl]-2-methylacrylic acid]  0.94 nM
6. CCCCCOCCCc1cccc(-c2csc(NC(=O)c3cc(F)c(C=C(C)C(=O)O)c(F)c3)n2)c1F [Compound B45, 3-(2,6-difluoro-4-{4-[2-fluoro-3-(3-n-pentyloxypropyl)phenyl]thiazol-2-ylcarbamoyl}phenyl)-2-methylacrylic acid]  1.36 nM
7. CCCOC(CC)c1cccc(-c2csc(NC(=O)c3cc(Cl)c(C=C(C)C(=O)O)c(Cl)c3)n2)c1F (stereo not drawn) [Compound B81, 3-(2,6-dichloro-4-{4-[2-fluoro-3-(1-n-propyloxypropyl)phenyl]thiazol-2-ylcarbamoyl}phenyl)-2-methylacrylic acid]  1.39 nM
8. CC(=Cc1c(Cl)cc(C(=O)Nc2nc(-c3cccc(CCCOCCC4CCCC4)c3F)cs2)cc1Cl)C(=O)O [Compound B89, 3-[2,6-dichloro-4-(4-[3-[3-(2-cyclopentylethyloxy)propyl]-2-fluorophenyl]thiazol-2-ylcarbamoyl)phenyl]-2-methylacrylic acid]  1.51 nM
9. COc1c(COCCCC2CCCCC2)cccc1-c1csc(NC(=O)c2cc(F)c(/C=C(\C)C(=O)O)c(F)c2)n1 [Compound B397]  2.52 nM
10. CCCOC(c1cccc(-c2csc(NC(=O)c3cc(Cl)c(/C=C(\C)C(=O)O)c(Cl)c3)n2)c1OC)C1CCCCC1 (stereo not drawn) [Compound B1102]  2.86 nM
11. CCCCCCCCCCOCc1cccc(-c2csc(NC(=O)c3cc(Cl)c(C=C(C)C(=O)O)c(Cl)c3)n2)c1F [Compound B76, 3-{2,6-dichloro-4-[4-(3-n-decyloxymethyl-2-fluorophenyl)thiazol-2-ylcarbamoyl]phenyl}-2-methylacrylic acid]  2.98 nM
12. COC(c1cccc(-c2csc(NC(=O)c3cc(F)c(C=C(C)C(=O)O)c(F)c3)n2)c1F)(C(C)C)C(C)C [Compound B7, 3-(2,6-difluoro-4-{4-[2-fluoro-3-(2,4-dimethyl-3-methyloxy-3-pentyl)phenyl]thiazol-2-ylcarbamoyl}phenyl)-2-methylacrylic acid]  3.6 nM
13. CCC(CC)COCCc1cccc(-c2csc(NC(=O)c3cc(Cl)c(/C=C(\C)C(=O)O)c(Cl)c3)n2)c1OC [Compound B1958, (E)-3-[2,6-dichloro-4-(4-{3-[2-(2-ethylbutyloxy)ethyl]-2-methyloxyphenyl}thiazol-2-ylcarbamoyl)phenyl]-2-methylacrylic acid]  7.57 nM
14. CCC(CC)OCc1cccc(-c2csc(NC(=O)c3cc(Cl)c(/C=C(\C)C(=O)O)c(Cl)c3)n2)c1OC [Compound B1892, (E)-3-(2,6-dichloro-4-{4-[3-(1-ethylpropyloxymethyl)-2-methyloxyphenyl]thiazol-2-ylcarbamoyl}phenyl)-2-methylacrylic acid]  11.6 nM
15. C/C(=C\c1c(F)cc(C(=O)Nc2nc3c(s2)COc2c(CCC(C)(C)C)cccc2-3)cc1F)C(=O)O [Compound A1315, (E)-3-{4-[6-(3,3-dimethylbutyl)-4H-chromeno[4,3-d]thiazol-2-ylcabamoyl]-2,6-difluorophenyl}-2-methylacrylic acid]  12.5 nM
16. COc1c(OCCC2CCCCC2)cccc1-c1csc(NC(=O)c2cc(F)c(/C=C(\C)C(=O)O)c(F)c2)n1 [Compound B1916]  12.9 nM
17. CCCCCCCOc1cccc(-c2csc(NC(=O)c3cc(Cl)c(/C=C(\C)C(=O)O)c(Cl)c3)n2)c1OC [Compound B1999, (E)-3-{2,6-dichloro-4-[4-(3-heptyloxy-2-methyloxyphenyl)thiazol-2-ylcarbamoyl]phenyl}-2-methylacrylic acid]  13.2 nM
18. COc1c(CCOCCCC(C)C)cccc1-c1csc(NC(=O)c2cc(Cl)c(/C=C(\C)C(=O)O)c(Cl)c2)n1 [Compound B1922, (E)-3-[2,6-dichloro-4-(4-{2-methyloxy-3-[2-(4-methylpentyloxy)ethyl]phenyl}thiazol-2-ylcarbamoyl)phenyl)-2-methylacrylic acid]  13.6 nM
19. COc1c(CCOCCCC(C)C)cccc1-c1csc(NC(=O)c2cc(F)c(/C=C(\C)C(=O)O)c(F)c2)n1 [Compound B1920, (E)-3-[2,6-difluoro-4-(4-{2-methyloxy-3-[2-(4-methylpentyloxy)ethyl]phenyl}thiazol-2-ylcarbamoyl)phenyl)-2-methylacrylic acid]  14.5 nM
20. CO/C(=C\c1c(F)cc(C(=O)Nc2nc(-c3cccc(CCOCCC(C)C)c3OC)cs2)cc1F)C(=O)O [Compound B1956]  15.1 nM
21. CCCCOCc1cccc(-c2csc(NC(=O)c3cc(F)c(/C=C(\C)C(=O)O)c(F)c3)n2)c1OC [Compound B1997, (E)-3-{4-[4-(3-butyloxymethyl-2-methyloxyphenyl)thiazol-2-ylcarbamoyl]-2,6-difluorophenyl}-2-methylacrylic acid]  15.5 nM
22. COc1c(CCCOCCC(C)C)cccc1-c1csc(NC(=O)c2cc(Cl)c(/C=C(\C)C(=O)O)c(Cl)c2)n1 [Compound B1852, (E)-3-[2,6-dichloro-4-(4-{2-methyloxy-3-[3-(3-methylbutyloxy)propyl]phenyl}thiazol-2-ylcarbamoyl)phenyl]-2-methylacrylic acid]  16.5 nM
23. CCCCCOCCc1cccc(-c2csc(NC(=O)c3cc(Cl)c(/C=C(\C)C(=O)O)c(Cl)c3)n2)c1OC [Compound B1925, (E)-3-(2,6-dichloro-4-{4-[2-methyloxy-3-(2-pentyloxyethyl)phenyl]thiazol-2-ylcarbamoyl)phenyl)-2-methylacrylic acid]  18.4 nM
24. COc1c(CCCOCC(C)(C)C)cccc1-c1csc(NC(=O)c2cc(Cl)c(/C=C(\C)C(=O)O)c(Cl)c2)n1 [Compound B1833, (E)-3-[2,6-dichloro-4-(4-{3-[3-(2,2-dimethylpropyloxy)propyl)-2-methyloxyphenyl]thiazol-2-ylcarbamoyl}phenyl)-2-methylacrylic acid]  19 nM

Same assay, conditions: 20 h + 4 h WST-1, ED50 = half concentration of the concentration showing the maximum thrombopoietic activity, Table 2

In order of falling EC50:
1. CCCCCCOCCc1cccc(-c2csc(NC(=O)c3cc(Cl)c(/C=C(\OC)C(=O)O)c(Cl)c3)n2)c1OC [Compound B1929, (Z)-3-(2,6-dichloro-4-{4-[3-(2-hexyloxyethyl)-2-methyloxyphenyl]thiazol-2-ylcarbamoyl)phenyl)-2-methyloxyacrylic acid]  25.8 nM
2. COc1c(CCCOCC2CCC2)cccc1-c1csc(NC(=O)c2cc(F)c(/C=C(\C)C(=O)O)c(F)c2)n1 [Compound B1854, (E)-3-(4-{4-[3-(3-cyclobutylmethyloxypropyl)-2-methyloxyphenyl]thiazol-2-ylcarbamoyl}-2,6-difluorophenyl)-2-methylacrylic acid]  24.4 nM
3. COc1c(CCCOCC2CCC2)cccc1-c1csc(NC(=O)c2cc(Cl)c(/C=C(\C)C(=O)O)c(Cl)c2)n1 [Compound B1855, (E)-3-(2,6-dichloro-4-{4-[3-(3-cyclobutylmethyloxypropyl)-2-methyloxyphenyl]thiazol-2-ylcarbamoyl}phenyl)-2-methylacrylic acid]  21.3 nM
